Experimental findings from the supplement of paper PMC5412046 are described below.

One experiment deals with SB.mhdgc-1. In words: AC50 for growth inhibition (viability) (log10 M); higher = less potent. To be noted: SB.mhdgc-1 (hereditary c.1380delA CDH1 gastric cancer). The gist of the method:
(§1)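 Compound dissolved in DMSO was transferred by pintool, 23 nL per 1536 well, onto 500 hereditary or sporadic patient-derived gastric cancer cells in 5 μL medium. The series spanned 11 threefold dilutions, the highest at a final 46 μM. At 48 h, a 30 min room-temperature incubation with CellTiter-Glo preceded luminescence measurement on a ViewLux. The log half-maximal activity concentration was fitted by a four-parameter model to DMSO-normalised viability, with only high-quality curve classes accepted.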

The subject of another experiment is SB.msgc-1. The experiment is described as above. The settings on record: SB.msgc-1 (sporadic gastric cancer). The gist of the method: as §1

Structures can show the parent of a compound that is named as a salt.

Regarding `CC[C@@]1(O)C(=O)OC\C2=C1\C=C\3N(CC4=C3N=C5C=CC=CC5=C4)C2=O` [Camptothecin], the “AC50 for growth inhibition (log10 M)” value in the experiment with SB.mhdgc-1 was -7.93; in the experiment on SB.msgc-1, -7.43.

With `C=CC(=O)Nc1cc2c(Nc3ccc(F)c(Cl)c3)ncnc2cc1OCCCN1CCOCC1` [Canertinib], the “AC50 for growth inhibition (log10 M)” value with SB.mhdgc-1 is -4.73; in the experiment on SB.msgc-1 it was -5.18.

For `C[C@@]12C(=O)OC(=O)[C@@]1(C)C1CCC2O1` [Cantharidin], the “AC50 for growth inhibition (log10 M)” value with SB.mhdgc-1 is -5.28; in the experiment on SB.msgc-1 it was -5.53.

`CC(C)C[C@H](NC(=O)[C@H](CCc1ccccc1)NC(=O)CN1CCOCC1)C(=O)N[C@@H](Cc1ccccc1)C(=O)N[C@@H](CC(C)C)C(=O)[C@@]1(C)CO1` [Carfilzomib]: the “AC50 for growth inhibition (log10 M)” value in the experiment on SB.mhdgc-1 is -7.93; with SB.msgc-1 it was -7.68.

Consider `CCCCCCNC(=O)N1\C=C(F)/C(=O)NC1=O` [Carmofur], for which the “AC50 for growth inhibition (log10 M)” value in the experiment on SB.mhdgc-1 is -6.33; in the experiment with SB.msgc-1, -5.48.

Regarding `COc1ccc2c(c[n+](C)c3c4cc5c(cc4ccc23)OCO5)c1OC` [Chelerythrine chloride], the “AC50 for growth inhibition (log10 M)” value was -5.08 in the experiment with SB.mhdgc-1 and -5.03 with SB.msgc-1.

Turning to `N=C(NCCCCCCNC(=N)NC(=N)Nc1ccc(Cl)cc1)NC(=N)Nc1ccc(Cl)cc1` [Chlorhexidine], the “AC50 for growth inhibition (log10 M)” value in the experiment on SB.mhdgc-1 is -5.28; with SB.msgc-1 it was -5.43.

As for `CCN(CC)CCCC(C)Nc1ccnc2cc(Cl)ccc12` (stereo unspecified) [Chloroquine (CQ)], the “AC50 for growth inhibition (log10 M)” value is -4.98 with SB.mhdgc-1 and -4.73 in the experiment on SB.msgc-1.

In the case of `Oc1c(Cl)cc(Cl)c2cccnc12` [Chloroxine], the “AC50 for growth inhibition (log10 M)” value in the experiment with SB.mhdgc-1 is -4.93; with SB.msgc-1 it was -4.68.

With `Nc1nc(Cl)nc2c1ncn2[C@H]1C[C@H](O)[C@@H](CO)O1` [Cladribine], the results for the “AC50 for growth inhibition (log10 M)” value in the experiment with SB.mhdgc-1 and in the experiment on SB.msgc-1 were -6.58 and -5.83, respectively.

Take `Nc1nc(Cl)nc2c1ncn2[C@@H]1O[C@H](CO)[C@@H](O)[C@@H]1F` [Clofarabine]: the entries for the “AC50 for growth inhibition (log10 M)” value in the experiment on SB.mhdgc-1 and in the experiment on SB.msgc-1 were -7.83 and -8.28, respectively.

With `CN(C)CCCN1c2ccccc2CCc2ccc(Cl)cc21` [Clomipramine hydrochloride], the “AC50 for growth inhibition (log10 M)” value in the experiment with SB.mhdgc-1 is -6.13; in the experiment on SB.msgc-1, -5.93.

As for `O=C(c1ccc(F)c(F)c1Nc1ccc(I)cc1F)N1CC(O)([C@H]2CCCCN2)C1` [Cobimetinib], the “AC50 for growth inhibition (log10 M)” value in the experiment with SB.mhdgc-1 was -4.78; with SB.msgc-1 it was -5.28.

Turning to `COc1ccc(/C=C\c2cc(OC)c(OC)c(OC)c2)cc1O` [Combretastatin A-4], the “AC50 for growth inhibition (log10 M)” value with SB.mhdgc-1 was -8.68; with SB.msgc-1 it was -5.23.

Regarding `C[C@@H]1C[C@H]2[C@@H]3\C=C(C)/C4=C/C5=C(C[C@]4(C)[C@H]3[C@@H](O)C[C@]2(C)[C@@]1(O)C(=O)COC(C)=O)C=N[N]5C6=CC=CC=C6` [Cortivazol], the figures for the “AC50 for growth inhibition (log10 M)” value with SB.mhdgc-1 and in the experiment on SB.msgc-1 were -5.53 and -5.58, respectively.

As to `C[C@@H](Oc1cc(-c2cnn(C3CCNCC3)c2)cnc1N)c1c(Cl)ccc(F)c1Cl` [Crizotinib], the “AC50 for growth inhibition (log10 M)” value in the experiment on SB.mhdgc-1 is -4.68; with SB.msgc-1, -4.63.

As to `CC(C)(O)/C=C\C(=O)[C@](C)(O)[C@H]1[C@H](O)C[C@]2(C)[C@@H]3CC=C4[C@@H](C=C(O)C(=O)C4(C)C)[C@]3(C)C(=O)C[C@@]12C` [Cucurbitacin I], the entries for the “AC50 for growth inhibition (log10 M)” value with SB.mhdgc-1 and with SB.msgc-1 were -7.43 and -5.98, respectively.

For `OC[C@H]1O[C@@H]2[C@@H](OC\3=N\C(=N)\C=C/[N@@]23)[C@@H]1O` [Cyclocytidine HCl], the “AC50 for growth inhibition (log10 M)” value in the experiment on SB.mhdgc-1 is -6.13; with SB.msgc-1 it was -5.43.

`C[C@@H]1CN[C@H]2[C@@H](C)[C@@]\3(CC[C@H]\4[C@@H]5C/C=C6/C[C@@H](O)CC[C@]6(C)[C@H]5CC4=C3C)O[C@@H]2C1` [Cyclopamine]: the “AC50 for growth inhibition (log10 M)” value was -4.68 in the experiment with SB.mhdgc-1 and -4.73 in the experiment on SB.msgc-1.

For `CC(=O)O[C@@]1(CC[C@H]2[C@@H]3\C=C(Cl)/C4=C/C(=O)[C@@H]5C[C@@H]5[C@]4(C)[C@H]3CC[C@]12C)C(C)=O` [Cyproterone acetate], the “AC50 for growth inhibition (log10 M)” value was -5.08 with SB.mhdgc-1 and -4.68 in the experiment with SB.msgc-1.

For the molecule `O=C1\C=C/C=C2/[C@H]3CNC[C@H](C3)CN12` [Cytisine], the “AC50 for growth inhibition (log10 M)” value in the experiment with SB.mhdgc-1 was -6.03; in the experiment with SB.msgc-1 it was -4.83.

`ClC/1=C(NCCN2CCOCC2)/C(=O)C3=C(C=CC=N3)C1=O` [DA-3003-1]: the entries for the “AC50 for growth inhibition (log10 M)” value in the experiment with SB.mhdgc-1 and in the experiment with SB.msgc-1 were -5.58 and -5.18, respectively.

For `CC(C)(C)c1nc(-c2cccc(N[S+](=O)([O-])c3c(F)cccc3F)c2F)c(-c2ccnc(N)n2)s1` [Dabrafenib], the “AC50 for growth inhibition (log10 M)” value in the experiment with SB.mhdgc-1 is -4.73; with SB.msgc-1, -4.88.

As for `O=C(/C=C/c1ccc(CN(CCO)CCc2c[nH]c3ccccc23)cc1)NO` [Dacinostat], the “AC50 for growth inhibition (log10 M)” value was -5.88 in the experiment on SB.mhdgc-1 and -6.63 in the experiment with SB.msgc-1.

In the case of `CCOc1ccc(Cc2cc([C@@H]3O[C@H](CO)[C@@H](O)[C@H](O)[C@H]3O)ccc2Cl)cc1` [Dapagliflozin], the “AC50 for growth inhibition (log10 M)” value was -5.18 with SB.mhdgc-1 and -4.98 in the experiment with SB.msgc-1.

For `OC1=C(O)C2=C(\C=C/C(=O)O2)C=C1` [Daphnetin], the “AC50 for growth inhibition (log10 M)” value is -5.78 in the experiment with SB.mhdgc-1 and -4.78 in the experiment on SB.msgc-1.

For `CN(C)[C@@H](CCOc1cccc2ccccc12)c1ccccc1` [Dapoxetine hydrochloride], the “AC50 for growth inhibition (log10 M)” value is -5.48 in the experiment with SB.mhdgc-1 and -4.73 in the experiment with SB.msgc-1.

For the molecule `COc1cccc2c1C(=O)c1c(O)c3c(c(O)c1C2=O)C[C@@](O)(C(C)=O)C[C@@H]3O[C@H]1C[C@H](N)[C@H](O)[C@H](C)O1` [Daunorubicin], the “AC50 for growth inhibition (log10 M)” value was -7.28 in the experiment with SB.mhdgc-1 and -6.93 in the experiment with SB.msgc-1.

Turning to `C[C@@H]1C[C@H]2[C@@H]3\C=C(C)/C4=C/C5=C(C[C@]4(C)[C@H]3[C@@H](O)C[C@]2(C)[C@@]1(O)C(=O)CO)C=N[N]5C6=CC=CC=C6` [Deacetyl cortivazol], the figures for the “AC50 for growth inhibition (log10 M)” value in the experiment with SB.mhdgc-1 and in the experiment on SB.msgc-1 were -5.63 and -5.08, respectively.

As to `CCC[C@H](NC(=O)/C(C#N)=C/c1cccc(Br)n1)c1ccccc1` [Degrasyn], the figures for the “AC50 for growth inhibition (log10 M)” value with SB.mhdgc-1 and in the experiment on SB.msgc-1 were -5.58 and -5.43, respectively.

Consider `COC1=CC2=C(C=C1OC)[C@H]3[C@@H](CO2)OC4=C(C=CC5=C4\C=C/C(C)(C)O5)C3=O` [Deguelin], for which the “AC50 for growth inhibition (log10 M)” value in the experiment with SB.mhdgc-1 is -5.38; with SB.msgc-1 it was -5.23.

Take `C[C@]12CC[C@H]3[C@@H](C\C=C/4C[C@@H](O)CC[C@]34C)[C@@H]1CCC2=O` [Dehydroepiandrosterone]: the “AC50 for growth inhibition (log10 M)” value was -5.78 with SB.mhdgc-1 and -4.78 with SB.msgc-1.

Consider `CC(C)C[C@H](NC(=O)[C@@H](NC(=O)c1cccc(-c2ccccc2)n1)[C@@H](C)O)B(O)O` [Delanzomib], for which the “AC50 for growth inhibition (log10 M)” value with SB.mhdgc-1 is -7.38; in the experiment with SB.msgc-1 it was -7.43.

Turning to `CN[C@H]1CCC2=CC(=C(OC)C(=C2C/3=C/C=C(OC)\C(=O)/C=C13)OC)OC` [Demecolcine], the “AC50 for growth inhibition (log10 M)” value was -8.13 in the experiment with SB.mhdgc-1 and -8.83 in the experiment with SB.msgc-1.

Turning to `ClC1=CC=C(C=C1)C(C#N)C2=C(Cl)C=C(C=C2Cl)N3\N=C/C(=O)NC3=O` (stereo unspecified) [Diclazuril], the “AC50 for growth inhibition (log10 M)” value is -4.78 in the experiment on SB.mhdgc-1 and -4.73 in the experiment on SB.msgc-1.

As to `CC/C(=C(/CC)c1ccc(O)cc1)c1ccc(O)cc1` [Diethylstilbestrol], the “AC50 for growth inhibition (log10 M)” value with SB.mhdgc-1 was -5.53; in the experiment with SB.msgc-1, -4.83.

In the case of `C[C@H]1O[C@H](C[C@H](O)[C@@H]1O)O[C@H]2[C@@H](O)C[C@@H](O[C@@H]2C)O[C@H]3[C@@H](O)C[C@@H](O[C@@H]3C)O[C@H]4CC[C@@]5(C)[C@H](CC[C@@H]6[C@@H]5C[C@@H](O)[C@]7(C)[C@H](CC[C@]67O)C/8=C/C(=O)OC8)C4` [Digoxin], the “AC50 for growth inhibition (log10 M)” value in the experiment with SB.mhdgc-1 and with SB.msgc-1 was -6.62 in each case.

As for `O=C1c2c(O)cc(O)cc2O[C@H](c2cc(O)c(O)c(O)c2)[C@H]1O` [Dihydromyricetin], the entries for the “AC50 for growth inhibition (log10 M)” value in the experiment on SB.mhdgc-1 and with SB.msgc-1 were -5.33 and -5.23, respectively.

For the molecule `c1ccc2c(Cc3c[nH]c4ccccc34)c[nH]c2c1` [Diindolylmethane], the “AC50 for growth inhibition (log10 M)” value in the experiment with SB.mhdgc-1 was -6.13; in the experiment on SB.msgc-1, -5.63.

Regarding `COC(=O)/C=C/C(=O)OC` [Dimethyl fumarate], the “AC50 for growth inhibition (log10 M)” value was -5.68 with SB.mhdgc-1 and -5.48 in the experiment on SB.msgc-1.

As to `CCc1cnn2c(NCc3ccc[n+]([O-])c3)cc(N3CCCC[C@H]3CCO)nc12` [Dinaciclib], the “AC50 for growth inhibition (log10 M)” value in the experiment with SB.mhdgc-1 is -8.03; with SB.msgc-1 it was -7.88.

As for `C[C@@H]1CC[C@@]2(OC1)O[C@H]3C[C@H]4[C@@H]5C/C=C6/C[C@H](CC[C@]6(C)[C@H]5CC[C@]4(C)[C@H]3[C@@H]2C)O[C@@H]7O[C@H](CO)[C@@H](O[C@@H]8O[C@@H](C)[C@H](O)[C@@H](O)[C@H]8O)[C@H](O)[C@H]7O[C@@H]9O[C@@H](C)[C@H](O)[C@@H](O)[C@H]9O` [Dioscin], the “AC50 for growth inhibition (log10 M)” value in the experiment with SB.mhdgc-1 is -5.38; in the experiment on SB.msgc-1, -5.23.

`COC1=CC=C(C=C1O)C/2=C/C(=O)C3=C(O2)C=C(O[C@@H]4O[C@H](CO[C@@H]5O[C@@H](C)[C@H](O)[C@@H](O)[C@H]5O)[C@@H](O)[C@H](O)[C@H]4O)C=C3O` [Diosmin]: the figures for the “AC50 for growth inhibition (log10 M)” value with SB.mhdgc-1 and in the experiment with SB.msgc-1 were -5.03 and -5.58, respectively.
